In US20110097274A1, “Carbon-11 and fluorine-18 labeled radioligands for positron emission tomography (PET) imaging for the brain serotonin transporters” (priority 2002, published 2011):
Where two headings read alike, the source gives them in different places.

Assays:
[1] = Baboon PET study: plasma analysis / input function of parent compound; type: in vivo; settings: baboons; for Vbol (initial distribution volume of parent compound) / Clearance of parent compound: i.v.; for Vbol (initial distribution volume of parent compound) / Clearance / Clearance of parent compound: mean ± SD of four experiments; for Clearance: male, monkey, arterial plasma, iv
Description: (§1) PET imaging protocol: PET experiments (n=20) were performed at Columbia University. Two adult male baboons (baboon A and B) were studied twice with each of the 5 radioligands (4 experiments per radioligand). All experiments took place within a 9-month period. Baboons A and B were 31 kg and 21 kg in weight at the beginning of the experimental period and 28 and 22 kg at the end, respectively.
Experiments were performed according to protocols approved by the Columbia-Presbyterian Medical Center Institutional Animal Care and Use Committee. […] Vital signs were monitored every 10 minutes and the temperature was kept constant at 37° C. with heated water blankets. An i.v. perfusion line was used for hydration and injection of radioligands and nonradioactive drugs. A catheter was inserted in a femoral artery for arterial blood sampling. Head was positioned at the center of the field of view as defined by imbedded laser lines. PET imaging was performed with the ECAT EXACT HR+PET scanner (Siemens/CTI, Knoxville, Tenn.). […] A 15 minute transmission scan was obtained prior to radioligand injection for attenuation correction. Activity was injected i.v. over 30 seconds.
Input function measurements: Arterial samples were collected every 5 seconds with an automated system for the first two minutes and manually thereafter at various intervals. A total of 28 samples were collected.
Selected plasma samples (n=6 per study, collected at 2, 4, 12, 30, 60 and 90 minutes after radioligand administration) were further processed by extraction with methanol (MeOH) followed by HPLC analysis to measure the fraction of plasma activity representing unmetabolized parent compound. The parent fraction was measured as follows: plasma (0.5 mL) was pipetted into a centrifuge tube containing MeOH (1.0 mL). […] The liquid phase was separated from the precipitate. Activity in 0.1 mL of the liquid phase was counted and the rest was injected onto the HPLC. The HPLC eluate was fraction-collected in 6 counting tubes (4.0 mL each). The HPLC system consisted of a Waters 510 isocratic pump, a Rheodyne injector equipped with a 2 mL sample loop, a C18 analytical column (Phenomenex ODS-prep, 10 μm, 4.6×250 mm), a Bioscan Flow Cell gamma detector (Bioscan, Washington, D.C.), and a fraction collector. The column was eluted with a mixture of acetonitrile and aqueous 0.1 M ammonium formate (proportion depending on the tracer being analyzed) at a flow rate of 2 mL/minute. Before plasma sample analysis, the retention time of the parent tracer was established by injection of a few μCi of the tracer and detection of the peak using the Bioscan gamma detector.
The parent fraction was calculated as the ratio of activity in the fractions containing the parent to that of the total activity collected. A biexponential function was fitted to the six measured parent fractions, and used to interpolate values between and after the measurements. […] The input function was then calculated as the product of total counts and interpolated fraction parent at each time point. The measured input function values were fitted to a sum of three exponentials, and the fitted values were used as input for the kinetic analyses. […] The initial distribution volume (Vbol, L) was calculated as the ratio of injected dose to peak plasma concentration.

[2] = Baboon PET imaging: brain uptake, kinetic analysis and SERT parameters; type: in vivo; settings: male, baboon, intravenous, baboons
Description: as §1, with “respectively. Test and retest experiments with the same radioligand were obtained on different days, with an average interval of 117±53 days.” for “respectively.”
Experiments were performed according to protocols approved by the Columbia-Presbyterian Medical Center Institutional Animal Care and Use Committee. Fasted animals were immobilized with ketamine (10 mg/kg i.m.), and anesthetized with 1.8% isoflurane via an endotracheal tube. Vital signs were monitored every 10 minutes and the temperature was kept constant at 37° C. with heated water blankets. An i.v. perfusion line was used for hydration and injection of radioligands and nonradioactive drugs. A catheter was inserted in a femoral artery for arterial blood sampling. Head was positioned at the center of the field of view as defined by imbedded laser lines. PET imaging was performed with the ECAT EXACT HR+PET scanner (Siemens/CTI, Knoxville, Tenn.). In 3D mode, this camera provides an in-plane resolution of 4.3 mm, 4.5 mm, 5.4 mm and 8.0 mm full width at half maximum (FWHM) at a distance of 0, 1, 10 and 20 cm from the center of the field of view, respectively (Brix et al., 1997). A 15 minute transmission scan was obtained prior to radioligand injection for attenuation correction. Activity was injected i.v. over 30 seconds. […] Emission data was collected in the 3D mode for 91 minutes as 21 successive frames of increasing duration (6*10 seconds, 2*1 minutes, 4*2 minutes, 2*5 minutes, and 7*10 minutes).
Image analysis: A Magnetic Resonance Image (MRI) of each baboon's brain was obtained for the purpose of identifying the regions of interest (ROI) (T1-weighted axial MRI sequence, acquired parallel to the anterior-posterior commissure, TR 34 msec, TE 5 msec, flip angle of 45 degrees, slice thickness is 1.5 mm, zero gap, matrix 1.5 mm×1 mm×1 mm voxels). The following regions were drawn on the MR images: cerebellum, midbrain, thalamus, striatum, hippocampus, temporal cortex, cingulate cortex and occipital cortex.
PET emission data were attenuation-corrected using the transmission scan, and frames were reconstructed using a Shepp filter (cutoff 0.5 cycles/projection rays). Reconstructed image files were then processed using the image analysis software MEDx (Sensor Systems, Inc., Sterling, Va.). An image was created by summing all the frames, and this summed image was used to define the registration parameters with the MR image, using between-modality automated image registration (AIR) algorithm (Woods et al., 1993). Registration parameters were then applied to the individual frames for registration to the MR data set. Regional boundaries were transferred to the individual registered PET frames, and time-activity curves were measured and decay-corrected. Right and left regions were averaged. For a given animal, the same regions were used for all radioligands.
Brain uptake: Total brain uptake was expressed as percentage of the injected dose per gram of tissue (% ID g^−1) in a region encompassing the entire brain. Regional peak time was defined as the mid-time of the frame associated with the highest activity value. To estimate the degree of wash-out from the brain captured during the scan interval (91 minutes), the decrease in activity from the peak frame to the last frame was calculated and expressed in percentage of the peak activity.
Kinetic analysis: Regional total distribution volumes (VT, mL g^−1) were derived with kinetic analysis of the regional time-activity curves, using the arterial plasma concentrations as input function. […]

[3] = brain regions (average of all regions), read-out: VT, average of all regions and all animals
[4] = cerebellum, one-tissue compartment model, mean ± SD of four experiments, read-out: VT Cerebellum (VT CER, nonspecific distribution volume)

| SMILES | Vbol (initial distribution volume of parent compound) [1] | Clearance [1] | Kp [2, 3] | Kp [2, 4] | Clearance of parent compound [1] | Parent fraction in plasma at 30 minutes [1] | fraction unbound ([2]; brain nonspecific distribution volume (cerebellum), calculated from f1 and cerebellar VT, read-out: f2 (free fraction in the nonspecific distribution volume)) |
| --- | --- | --- | --- | --- | --- | --- | --- |
| CN(C)Cc1ccccc1Sc1ccc(I)cc1N [[^11C]ADAM] | 8.1 ± 3.1 L | 1120 mL/min | 42.8 ± 12.9 | 28.5 ± 4.8 | – | – | – |
| CN([11CH3])Cc1ccccc1Sc1ccc(CF)cc1N [[^11C]AFM, [^11C]2-[2-(Dimethylaminomethyl)phenylthio]-5-fluoromethylphenylamine] | 17.6 ± 1.3 L | – | – | – | 90 ± 46 L/h | – | – |
| CN(C)Cc1ccccc1Sc1ccc(Br)cc1N [[^11C]DAPA] | 8.5 ± 1.8 L | 967 mL/min | 47.8 ± 16 | 29.3 ± 2.9 | – | – | – |
| CN(C)Cc1ccccc1Sc1ccc(C#N)cc1N [[^11C]DASB] | 12.6 ± 2.2 L | 1400 mL/min | 29.2 ± 11.5 | 17.3 ± 0.5 | – | 20±1% | 0.0077 ± 0.0008 |
| [11CH3]Sc1ccc([C@H]2CN3CCC[C@H]3c3ccccc32)cc1 [[^11C]McN 5652] | 5.9 ± 1.8 L | – | – | – | 58 ± 13 L/h | 28±13% | – |
